Patent US8772268B2, “Bisphosphonamidate prodrugs and uses thereof” (The Johns Hopkins University, priority 2010, dated 2014)
Where “and” joins values, the source holds several entries; their conditions need not be identical. Equal values may be shown once.

How the values were obtained:
HS 578T = assay: NCI-60 DTP Human Tumor Cell Line Screen; format: cell-based; conditions: Breast Cancer, 48 h
BT-549 = assay: NCI-60 DTP Human Tumor Cell Line Screen; format: cell-based; conditions: BT-549, Breast Cancer, 48 h
T-47D = assay: NCI-60 DTP Human Tumor Cell Line Screen; format: cell-based; conditions: Breast Cancer, 48 h
U251 = assay: NCI-60 DTP Human Tumor Cell Line Screen; format: cell-based; conditions: U251, CNS Cancer, 48 h
M14 = assay: NCI-60 DTP Human Tumor Cell Line Screen; format: cell-based; conditions: M14, Melanoma, 48 h
NCI-H226 = assay: NCI-60 DTP Human Tumor Cell Line Screen; format: cell-based; conditions: NCI-H226, Non-Small Cell Lung Cancer, 48 h
HCT-15 = assay: NCI-60 DTP Human Tumor Cell Line Screen; format: cell-based; conditions: HCT-15, Colon Cancer, 48 h
HOP-62 = assay: NCI-60 DTP Human Tumor Cell Line Screen; format: cell-based; conditions: HOP-62, Non-Small Cell Lung Cancer, 48 h
SR = assay: NCI-60 DTP Human Tumor Cell Line Screen; format: cell-based; conditions: Leukemia, 48 h
A549 NSCLC cells = assay: Effect of drug treatment time (MTS, drug removed); format: cell-based; conditions: A549, 24 or 2 h exposure, viability measured after 48 h
Procedure: Cell proliferation was determined using the CellTiter 96 Aqueous One Solution Cell Proliferation Assay MTS assay. A549 NSCLC cells were plated at 1.5×10^3 cells per well in flat bottom 96 well plates in 99 μL of media and allowed to adhere overnight. The drugs were serially diluted in 100% DMSO. For each drug treatment group, 1 μL of a 100× stock solution was added to each well for a final DMSO concentration of 1%. Cells were treated for 2, 24, or 48 under normoxic or hypoxic (1-3% oxygen) conditions. Following 2 or 24 h, media containing drug was removed, the cells were washed 1× with fresh media, and 100 μL fresh media was added to each well. Cells were then allowed to grow for an additional 46 or 24 h in drug free media. After 48 h, cells were incubated with MTS dye (20 μL well^−1) for 40 min to 2 h. Absorbance at 490 nm was determined using a SpectraMax M2 (Molecular Devices) plate reader. The percent cell proliferation was calculated by converting the experimental absorbance to percentage of control, which was then plotted vs. drug concentration. The IC50 values were determined using a non-linear dose-response analysis in GraphPad Prism version 4.0.
A549 cells were treated with prodrug 14 for 24 or 2 h. Prodrug was removed and cell viability measured after 48 h using a standard MTS assay. Longer exposure to […] results in lower […].

[1] = In vivo tolerance study, intraperitoneal dosing; design: species or system Balb/C mice; conditions: listed as clodronate prodrug
Procedure: Thirteen Balb/C mice were split into four groups; untreated, vehicle, dose 1 and dose 2. Untreated mice received no treatment or injection. The vehicle was 100 μL of corn oil. Mice receiving dose 1 received 100 μL of 30 mM clodronate prodrug dissolved in corn oil (2.17 mg/dose), which is about 110 mg/kg dose. Mice receiving dose 2 received 100 μL of 50 mM clodronate prodrug dissolved in corn oil (3.61 mg/dose), which is about a 200 mg/kg dose. Mice were dosed on Monday of each week for two weeks. The weights were measured for 4 consecutive days following dosing.

IGROV1 = assay: NCI-60 DTP Human Tumor Cell Line Screen; format: cell-based; conditions: IGROV1, Ovarian Cancer, 48 h
SK-MEL-2 = assay: NCI-60 DTP Human Tumor Cell Line Screen; format: cell-based; conditions: SK-MEL-2, Melanoma, 48 h
CAKI-1 = assay: NCI-60 DTP Human Tumor Cell Line Screen; format: cell-based; conditions: CAKI-1, Renal Cancer, 48 h
OVCAR-3 = assay: NCI-60 DTP Human Tumor Cell Line Screen; format: cell-based; conditions: OVCAR-3, Ovarian Cancer, 48 h
OVCAR-8 = assay: NCI-60 DTP Human Tumor Cell Line Screen; format: cell-based; conditions: OVCAR-8, Ovarian Cancer, 48 h
LOX IMVI = assay: NCI-60 DTP Human Tumor Cell Line Screen; format: cell-based; conditions: Melanoma, 48 h
OPVCAR-5 = assay: NCI-60 DTP Human Tumor Cell Line Screen; format: cell-based; conditions: OPVCAR-5, Ovarian Cancer, 48 h
L1210 = assay: Cytotoxicity, L1210; format: cell-based

Work on `CN(CCCCCl)P(=O)(OCc1ccc([N+](=O)[O-])cc1)C(Cl)(Cl)P(=O)(OCc1ccc([N+](=O)[O-])cc1)N(C)CCCCCl` (stereo not shown) [compound 14] yielded a Log10GI50 (HS 578T) of −5.53, a Log10LC50 (HS 578T) of over −4.00 and a Log10TGI (HS 578T) of −5.04. For the same compound, the Log10GI50 (BT-549) was −5.50, the Log10LC50 (BT-549) was over −4.00 and the Log10TGI (BT-549) was −5.03. The Log10GI50 (T-47D) was −5.27, the Log10LC50 (T-47D) was over −4.00 and the Log10TGI (T-47D) was over −4.00. For the same compound, the Log10GI50 (U251) was −5.45, the Log10LC50 (U251) was over −4.00 and the Log10TGI (U251) was over −4.00. For the same compound, the Log10GI50 (M14) was −5.40, the Log10LC50 (M14) was over −4.00 and the Log10TGI (M14) was over −4.00. For the same compound, the Log10GI50 (NCI-H226) was −5.52, the Log10LC50 (NCI-H226) was over −4.00 and the Log10TGI (NCI-H226) was over −4.00. For the same compound, the Log10GI50 (HCT-15) was −5.41, the Log10LC50 (HCT-15) was over −4.00 and the Log10TGI (HCT-15) was over −4.00. The Log10GI50 (HOP-62) was over −4.00, the Log10LC50 (HOP-62) was over −4.00 and the Log10TGI (HOP-62) was over −4.00. For the same compound, the Log10GI50 (SR) was −5.43, the Log10LC50 (SR) was over −4.00 and the Log10TGI (SR) was over −4.00. The “growth inhibition over shorter drug treatment times” value (A549 NSCLC cells) was “more potent growth inhibition than zoledronate”, the Wt ([1]; Dose 1 (about 110 mg/kg i.p.), week 1, Apr. 11, 2011, individual mice) was 19.2 g and 18.3 g and 19.4 g and the Wt ([1]; Dose 1, 2nd week of treatment, Apr. 18, 2011) was 19.3 g and 18.8 g and 18.4 g. The Wt ([1]; Dose 1, 2nd week, Apr. 19, 2011) was 19.3 g and 18.9 g and 18.3 g, the Wt ([1]; Dose 1, 2nd week, Apr. 20, 2011) was 19.4 g and 18.9 g and 18.4 g and the Wt ([1]; Dose 1, 2nd week, Apr. 21, 2011) was 19.1 g and 18.9 g and 18.6 g. The Wt ([1]; Dose 1, 2nd week, Apr. 22, 2011) was 19.3 g and 19.2 g and 18.3 g, the Wt ([1]; Dose 1, week 1, Apr. 12, 2011) was 19.3 g and 18.1 g and 18.4 g and the Wt ([1]; Dose 1, week 1, Apr. 13, 2011) was 19.8 g and 18.8 g and 18.7 g. The Wt ([1]; Dose 1, week 1, Apr. 14, 2011) was 19.8 g and 18.7 g and 19.1 g, the Wt ([1]; Dose 1, week 1, Apr. 15, 2011) was 19.5 g and 19.01 g and 18.8 g and the Wt ([1]; Dose 2 (about 200 mg/kg i.p.), week 1, Apr. 11, 2011, individual mice) was 18.7 g and 18.2 g and 19.1 g. The Wt ([1]; Dose 2, 2nd week of treatment, Apr. 18, 2011) was 19.3 g and 19.1 g and 19.5 g, the Wt ([1]; Dose 2, 2nd week, Apr. 19, 2011) was 19.1 g and 19.3 g and 19.5 g and the Wt ([1]; Dose 2, 2nd week, Apr. 20, 2011) was 18.8 g and 19 g. For the same compound, the Wt ([1]; Dose 2, 2nd week, Apr. 21, 2011) was 19 g and 19.4 g, the Wt ([1]; Dose 2, 2nd week, Apr. 22, 2011) was 18.9 g and 19.5 g and 20 g and the Wt ([1]; Dose 2, week 1, Apr. 12, 2011) was 17.8 g and 17.7 g and 18.2 g. For the same compound, the Wt ([1]; Dose 2, week 1, Apr. 13, 2011) was 19.07 g and 18.8 g, the Wt ([1]; Dose 2, week 1, Apr. 14, 2011) was 19.03 g and 18.8 g and 19.1 g and the Wt ([1]; Dose 2, week 1, Apr. 15, 2011) was 18.7 g and 18.2 g and 19.6 g. It also gave a Log10GI50 (IGROV1) of −5.39, a Log10LC50 (IGROV1) of over −4.00 and a Log10TGI (IGROV1) of over −4.00. For the same compound, the Log10GI50 (SK-MEL-2) was −5.60, the Log10LC50 (SK-MEL-2) was over −4.00 and the Log10TGI (SK-MEL-2) was −5.18. The Log10GI50 (CAKI-1) was −5.54, the Log10LC50 (CAKI-1) was over −4.00 and the Log10TGI (CAKI-1) was over −4.00. It also gave a Log10GI50 (OVCAR-3) of −5.40, a Log10LC50 (OVCAR-3) of over −4.00 and a Log10TGI (OVCAR-3) of over −4.00. For the same compound, the Log10GI50 (OVCAR-8) was −5.38, the Log10LC50 (OVCAR-8) was over −4.00 and the Log10TGI (OVCAR-8) was over −4.00. It also gave a Log10GI50 (LOX IMVI) of −5.75, a Log10LC50 (LOX IMVI) of −4.26 and a Log10TGI (LOX IMVI) of −5.33. It also gave a Log10GI50 (OPVCAR-5) of −5.45, a Log10LC50 (OPVCAR-5) of over −4.00 and a Log10TGI (OPVCAR-5) of over −4.00. The IC50 (L1210) was 11.7 ± 1.78 µM.
